Results from patent publication US9095567B2, “Vaccine formulations” (priority 2010, dated 2015).
“Also recorded” adds a separate entry of the source.

How the values were obtained:
S. aureus = experiment: Multi-challenge method, S. aureus decay (non-linear regression analysis); format: cell-based
Experimental: (§1) To represent the worst reasonable case of contamination that may occur in practice during the repeated use of a multi-dose presentation, WHO requires safety testing with deliberate exposure to multiple contamination events using bacterial strains, Pseudomonas Aeruginosa (“PA”), Staphylococcus Aureus (“SA”), Escherichia coli (“EC”) and Bacillus subtilis (“BA”). Formulations are spiked with 5×10^3 CFU/ml of each organism at times 0, 6 hours, 24 hours, 7 days and 14 days after initial challenge and stored either at 2-8° C. or at 22-24° C. to mimic the potential storage conditions in practice.
(§2) To assess the appropriateness of WHO multi-dose Open Vial Policy of vaccines in multiple immunization sessions for up to maximum of four weeks, experimental design provided by WHO was implemented. In this study, the effectiveness of Thimerosal was evaluated at the concentration that is present in the majority of U.S. licensed vaccines (0.01%), as well as at a higher concentration of 0.02%. To represent the worst reasonable case of contamination that may occur in practice during the repeated use of a multi-dose presentation, and to test WHO requirements, Prev(e)nar 13 vaccine formulations with 0.01 or 0.02% Thimerosal or with 5.0 mg/dose of 2-PE were deliberately exposed to multiple contamination events using WHO recommended bacterial strains, P. aeruginosa, S. aureus, E. coli and B. subtilis. Formulations were spiked with 5×10^3 CFU/ml of each organism at times 0, 6 hours, 24 hours, 7 days and 14 days after initial challenge and stored either at 2-8° C. or at 22-24° C. to mimic the potential storage conditions in practice. Saline formulation containing 0.02% Thimerosal was also used as a control to evaluate the potential impact of Prev(e)nar 13 on the antimicrobial efficacy of Thimerosal in the formulation.
As shown in the non-linear regression analysis of decay in the viability of S. aureus is summarized in FIG. 12, the rate of decay of S. aureus was substantially slower ([…], with 50% decay in 30.28 days) when formulation was stored at 2-8° C. compared to that stored at 22-24° C. (−1.39 log10 decay per day, with 50% decay in 6.2 days) (FIG. 12).

[1] = 2-PE concentration on storage (Reversed-Phase HPLC assay)
Experimental: 2-EP concentration may be measured with a Reversed-Phase HPLC assay, also as described in Example 3. A Reversed-Phase HPLC assay may be performed in the following manner: Samples are vortexed and diluted 1:10 into 5 mM Succinate buffer in saline, centrifuged and diluted again 1:10 into 5 mM succinate buffer in saline (final dilution of the Test Sample is 1:100). The sample is then assayed utilizing the Agilent Eclipse XDB-C18 HPLC column and a linear gradient of water and acetonitrile containing trifluoroacetic acid. The quantification of the preservative is then compared to a standard curve.
2-PE concentration was measured with a Reversed-Phase HPLC assay. Samples were vortexed and diluted 1:10 into 5 mM Succinate buffer in saline, centrifuged and diluted again 1:10 into 5 mM succinate buffer in saline. Final dilution of the Test Sample was 1:100. The assay utilized the Agilent Eclipse XDB-C18 HPLC column and a linear gradient of water and acetonitrile containing trifluoroacetic acid. 2-PE in 13vPnC Multi-Dose Vaccine samples was quantified against a 2-PE standard curve.

[2] = test system: Pseudomonas aeruginosa (ATCC #9027); experiment: Preservative effectiveness test, single challenge; format: cell-based; details: Prev(e)nar 13 formulation, 20 to 25° C.
From the text: (§3) To test for preservative effectiveness, aliquots of vaccine were inoculated with the following organisms:
(§4) Thirty milliliters (ml) of each vaccine formulation with and without Thimerosal or 2-PE at indicated concentrations or saline containing Thimerosal at 0.02% were inoculated in triplicates with a suspension of each test organism to achieve an inoculum density of approximately 10^5 to 10^6 CFU/ml at time 0 (CFU=colony forming units). […] Samples were mixed to ensure even distribution of challenged organisms. Another 30 ml of vaccine in triplicate (with and without preservative) were used as a negative control and spiked with the culture media alone to evaluate the inherent contamination that might be present in the sample or media. Each of the three series of vaccines, and positive and negative controls, was then separately incubated at 20 to 25° C. Aliquots (1 ml) of the challenged samples and controls (or their appropriate serial ten fold dilutions) were enumerated by plate count in duplicates at time 0 and at intervals of 6 hours, 24 hours, 7 days, 14 days and 28 days post-inoculation.
(§5) USP 29 NF 24 Supplement 2 (USP) requires that, after an inoculation of bacterial micro-organism(s), there is at least 1.0 log reduction from the initial calculated count (i.e., at time of inoculation) at 7 days, at least 3.0 log reduction at 14 days from the previous value measured and no increase at 28 days from the previous measured value. For yeast and fungi, the USP requirement is for there to be no increase from the time of inoculation to 7, 14 and 28 days.
(§6) EP requirements are more stringent. EP 5th Edition 5.6 (5.1.3) requirements for parenteral and ophthalmic preparations has two components: Category A and Category B. Category A (EP-A) requires, for bacteria, at least 2.0 log reduction from the initial calculated count at 6 hours after inoculation, at least 3.0 log reduction at 24 hours from the previous measured value, and no recovery at 28 days. Category B (EP-B) requires, for bacteria, at least 1.0 log reduction at 24 hours from the initial calculated count, at least 3.0 log reduction at 7 days from the previous value measured and not more than 0.5 log increase at 28 days from the previous value measured (i.e., no increase). For yeast and fungi, Category A requires at least 2.0 log reduction at 7 days and no increase from the previous value measured at 28 days, and Category B requires at least 1.0 log reduction at 14 days and no increase from the previous value measured at 28 days.
(§7) Plates containing <300 CFU for bacteria or <100 CFU for yeast or mold were used during enumeration. For single challenge studies, arithmetic average count of all surviving micro-organisms in triplicate and on duplicate plates (6 values per time point) plus their diluted samples were measured and normalized as CFU/ml. The results are expressed as mean log10 CFU/ml reduction (compared to time 0). In this case, the count of surviving micro-organisms is evaluated at time 0 as the baseline and compared to incubation time of 6 hours, 24 hours, 7 days, 14 days and 28 days.

[3] = test system: Aspergillus niger (ATCC #16404); experiment: Preservative effectiveness test, single challenge; format: cell-based
From the text: as §3, §4, §5, §6, §7

E. coli [4] = experiment: Preservative effectiveness test, single challenge; format: cell-based; details: Prev(e)nar 13 formulation, 20 to 25° C.
From the text: as §3, §4, §5, §6, §7

[5] = test system: P. aeruginosa, S. aureus, E. coli and B. subtilis; experiment: Preservative effectiveness test, multi-challenge method, all challenge organisms; format: cell-based
Experimental: as §1, §2

E. coli [6] = test system: E. coli
Experimental: as §1
as §2, with “Formulations were spiked with 5×10^3 CFU/ml of each organism at times 0, 6 hours, 24 hours, 7 days and 14 days after initial challenge and stored either at 2-8° C. or at 22-24° C. to mimic the potential storage conditions in practice. Saline formulation containing 0.02% Thimerosal was also used as a control to evaluate the potential impact of Prev(e)nar 13 on the antimicrobial efficacy of Thimerosal in the formulation.” left out

[7] = 5 mg/dose 2-PE in Prev(e)nar 13, single challenge
[8] = Prev(e)nar 13 formulation, single challenge, 20 to 25° C.
[9] = 0.01% Thimerosal in Prev(e)nar 13, multiple challenges, particularly at 2-8° C.
[10] = 0.02% Thimerosal, multiple challenges
[11] = 0.01% Thimerosal in Prev(e)nar 13, stored at 2-8° C.
[12] = 0.01% Thimerosal in Prev(e)nar 13, stored at 22-24° C.
[13] = 0.02% Thimerosal in Prev(e)nar 13, 22-24° C. storage
[14] = 0.02% Thimerosal in saline control formulation without vaccine

Question: Which “inactivation of S. aureus viability compared with Thimerosal” value (S. aureus; 5 mg/dose of 2-PE in Prev(e)nar 13, single or multiple challenge, either storage temperature) does the source give for `OCCOc1ccccc1` [2-PE, 2-phenoxyethanol] here?
Answer: stronger

Question: What about the “rate of S. aureus decay (50% decay and average slope) compared with Thimerosal” value (S. aureus; vaccine formulations with 2-PE, non-linear regression analysis) of the same compound?
Answer: faster

Question: And the “concentration of 2-PE in the formulation on storage” value ([1]; Prev(e)nar 13 formulation stored at 2-8° C. (two and a half years))?
Answer: similarly stable; also recorded: did not change

Question: And the “concentration of 2-PE in the formulation on storage” value ([1]; Prev(e)nar 13 formulation stored at 37° C. (a month))?
Answer: similarly stable; also recorded: did not change

Question: What about the “EP (EP-B) vaccine safety requirements, P. aeruginosa” value [2] of the same compound?
Answer: Fails

Question: What about the “USP vaccine safety requirements, P. aeruginosa” value [2] of the same compound?
Answer: Meets

Question: What about the “effectiveness as a preservative against A. niger compared with Thimerosal” value [3, 7] of the same compound?
Answer: less effective

Question: And the “rate of decline of A. niger contamination compared to Thimerosal” value [3, 7]?
Answer: slower

Question: And the “EP (EP-B) vaccine safety requirements, A. niger” value [3, 8]?
Answer: Fails

Question: What about the “USP vaccine safety requirements, A. niger” value [3, 8] of the same compound?
Answer: Meets

Question: And the “EP (EP-B) vaccine safety requirements, E. coli” value (E. coli [4])?
Answer: Fails

Question: And the “USP vaccine safety requirements, E. coli” value (E. coli [4])?
Answer: Meets

Question: What about the “EP-B criteria under multiple challenge” value ([5]; 5 mg/dose 2-PE in Prev(e)nar 13) of the same compound?
Answer: met

Question: And the “preservative effectiveness compared with 0.01% Thimerosal” value ([5]; 5 mg/dose 2-PE, multi-challenge method, regardless of storage temperature, all organisms tested)?
Answer: superior

Question: What about the “rate of antimicrobial effectiveness compared to Thimerosal” value ([5]; 2-PE at 3.5 to 5 mg/dose) of the same compound?
Answer: much higher

Question: With `C[CH2][Hg][S]c1ccccc1C(=O)[O-].[Na+]` [Thimerosal] as the compound, how does the “reduction of E. coli” value (E. coli [6]; [9]) read?
Answer: slow

Question: And the “rate of decay of E. coli in saline formulation versus vaccine formulation” value (E. coli [6]; [10])?
Answer: more pronounced

Question: And the “reduction of S. aureus” value (S. aureus; [9])?
Answer: slow

Question: What about the “rate of decay of S. aureus” value (S. aureus; [11]) of the same compound?
Answer: −5.98 log10 decay per day

Question: And the “time to 50% decay of S. aureus” value (S. aureus; [11])?
Answer: 30.28 days

Question: What about the “rate of decay of S. aureus” value (S. aureus; [12]) of the same compound?
Answer: −1.39 log10 decay per day

Question: What about the “time to 50% decay of S. aureus” value (S. aureus; [12]) of the same compound?
Answer: 6.2 days

Question: What about the “rate of decay of S. aureus in saline formulation versus vaccine formulation” value (S. aureus; [10]) of the same compound?
Answer: more pronounced

Question: And the “antibacterial effectiveness by organism” value ([5]; 0.01% Thimerosal in Prev(e)nar 13, multiple challenges)?
Answer: highest on B. subtilis followed by P. aeruginosa

Question: What about the “EP requirements EP-A applied to multi-challenge studies” value [5, 13] of the same compound?
Answer: did not meet

Question: And the “EP requirements EP-B applied to multi-challenge studies” value [5, 13]?
Answer: did not meet

Question: And the “acceptance criteria of EP-A when multiply challenged” value [5, 14]?
Answer: did not meet

Question: And the “acceptance criteria of EP-B when multiply challenged” value [5, 14]?
Answer: did not meet

Question: What about the “preservative effectiveness, concentration dependence” value ([5]; Thimerosal 0.02% versus 0.01%, multiple challenges) of the same compound?
Answer: more effective

Question: And the rate of inactivation ([5]; Thimerosal in Prev(e)nar 13, particularly against S. aureus and E. coli)?
Answer: slow

Question: And the “EP-B criteria under multiple challenge” value ([5]; Thimerosal, any version tested)?
Answer: no version of Thimerosal was able to do so

Question: And the “preservative effectiveness, temperature dependence” value ([5]; Thimerosal, storage at 22-24° C. versus 2-8° C., multiple challenges)?
Answer: more effective
